Measurements taken from US7030137B2, “Substituted thiophenes with antibacterial activity” (Replidyne, Inc., priority 2003, dated 2006).
pIC50: −log10 of the molar value. ≈ marks a conversion by molar mass, not a printed value. Where a name gives a salt, the structure may show the parent alone.

Assays:
[1] = test system: S. aureus; assay: MIC S. aureus (standard MIC assay modified by inclusion of cyclodextrin); format: cell-based; conditions: Staphylococcus aureus
Method: (§1) Compounds of the present invention were assayed for antibacterial activity against a range of pathogenic organisms (strains of S aureus, S pneumoniae, E faecalis, H influenzae and M catarrhalis) in a standard MIC assay modified by the inclusion of cyclodextrin, to assist with solubility.

[2] = test system: S. aureus, S. pneumoniae, and E. faecalis; assay: MIC against some strains of gram positive pathogens; format: cell-based
Method: as §1

[3] = test system: S. pneumo; assay: MIC S. pneumo (standard MIC assay modified by inclusion of cyclodextrin); format: cell-based; conditions: Streptococcus pneumoniae
Method: as §1

[4] = test system: H. influenzae; assay: MIC H. influenzae (standard MIC assay modified by inclusion of cyclodextrin); format: cell-based; conditions: Haemophilus influenzae
Method: as §1

[5] = test system: M catarrhalis and H. influenzae; assay: MIC against some strains of gram negative pathogens; format: cell-based; conditions: Haemophilus influenzae
Method: as §1

[6] = biological target: T1, recombinant H. influenzae MRS (Haemophilus influenzae, UniProt P43828); assay: Enzyme Inhibition (H. influenzae MRS) aminoacylation assay; format: biochemical; conditions: read-out: IC50 against H. influenzae MRS
T1 construct: made in house
T1 sequence (P43828 whole entry): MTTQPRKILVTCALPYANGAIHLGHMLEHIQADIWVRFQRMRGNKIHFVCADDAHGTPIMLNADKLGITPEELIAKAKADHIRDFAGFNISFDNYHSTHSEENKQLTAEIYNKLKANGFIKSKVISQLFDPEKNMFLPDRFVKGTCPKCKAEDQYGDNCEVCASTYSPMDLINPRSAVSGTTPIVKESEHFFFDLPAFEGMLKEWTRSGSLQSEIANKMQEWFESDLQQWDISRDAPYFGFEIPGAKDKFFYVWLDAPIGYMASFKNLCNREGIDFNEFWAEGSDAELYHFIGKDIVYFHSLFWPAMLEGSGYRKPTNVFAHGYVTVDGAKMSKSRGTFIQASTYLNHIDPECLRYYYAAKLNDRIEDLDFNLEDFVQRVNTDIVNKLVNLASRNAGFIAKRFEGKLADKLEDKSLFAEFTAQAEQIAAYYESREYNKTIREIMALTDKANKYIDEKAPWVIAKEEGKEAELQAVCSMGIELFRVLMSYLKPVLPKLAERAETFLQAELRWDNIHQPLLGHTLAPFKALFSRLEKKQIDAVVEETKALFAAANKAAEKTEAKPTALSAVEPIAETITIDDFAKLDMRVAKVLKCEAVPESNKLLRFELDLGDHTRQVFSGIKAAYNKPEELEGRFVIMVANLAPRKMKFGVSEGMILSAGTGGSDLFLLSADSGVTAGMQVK
Method: 2. Enzyme Inhibition (H. influenzae MRS)—aminoacylation assay
Compounds of the present invention may be assayed for their ability to inhibit the enzyme methionyl tRNA synthetase (MRS), using recombinant H. influenzae MRS(R. D. Fleischmann et al., Science, 269, 496–512, 1995), as follows:
The reaction is started by adding 20 μl appropriately diluted pure enzyme (pre-incubated with inhibitor) to 25 μl reaction mix for 10 min at room temperature. The reaction is terminated by the addition of 150 μl 167 mM sodium citrate, pH 2.15 containing phosphodiesterase (PDE) SPA beads (0.833 mg/ml). The binding of the radiolabelled product to the bead brings the isotope into close enough proximity to allow radiation from the tritium to excite the scintillant within the bead. Any unbound radiolabel is not close enough to the scintillant to allow this energy transfer, so no signal is generated. Following termination of the reaction, plates are spun at 2500 rpm for 5 min in a Mistral 3000E plate centrifuge (or alternatively allowed to stand for 1 hour). The assay is conducted in 96-well Optiplates (Packard). Plates are counted on a TopCount. (Packard 96 well counter).
Mixed E. coli MRE 600 tRNA and ATP were purchased from Boehringer-Mannheim, L-[methyl-^3H]methionine and phosphodiesterase scintillation proximity (SPA) beads from Amersham Pharmacia Biotech and other reagents from Sigma.

[7] = prior art thiophenes of U.S. Pat. No. 6,320,051

Structure (SMILES)	MIC [1] [µg/mL]	MIC [2] [µg/mL]	MIC [3] [µg/mL]	MIC [4] [µg/mL]	pIC50 [6]	MIC [1, 7] [µg/mL]	MIC [3, 7] [µg/mL]	MIC [4, 7] [µg/mL]	MIC [5] [µg/mL]
C=Cc1sc(CNCCCNc2cc(=O)c3ccccc3[nH]2)c(C)c1Br [Example 3, N-(4-bromo-3-methyl-5-vinylthiophen-2-ylmethyl)-N′-(1H-quinolin-4-one)propane-1,3-diamine]	0.06 (≈ 0.139 µM)	0.06 to 0.5 (≈ 0.139 to 1.16 µM)	0.06 (≈ 0.139 µM)	16 (≈ 37 µM)	–	–	–	–	–
C=C(F)c1sc(CNCCCNc2cc(=O)c3ccccc3[nH]2)c(C)c1Br [Example 4, N-(4-bromo-5-(1-fluorovinyl)-3-methylthiophen-2-ylmethyl)-N′-(1H-quinolin-4-one)propane-1,3-diamine]	0.06 (≈ 0.133 µM)	0.06 to 0.5 (≈ 0.133 to 1.11 µM)	0.06 (≈ 0.133 µM)	4 (≈ 8.88 µM)	–	–	–	–	0.13 to 8 (≈ 0.289 to 17.8 µM)
Cc1c(CNCCCNc2cc(=O)c3ccccc3[nH]2)sc(C2CC2)c1Br [Example 6, N-(4-bromo-5-cyclopropyl-3-methylthiophen-2-ylmethyl)-N′-(1H-quinolin-4-one)propane-1,3-diamine]	0.06 (≈ 0.134 µM)	0.06 to 0.5 (≈ 0.134 to 1.12 µM)	0.13 (≈ 0.291 µM)	32 (≈ 71.7 µM)	–	–	–	–	–
CC=Cc1c(CNCCCNc2cc(=O)c3ccccc3[nH]2)sc(CC)c1Br [Example 10, N-(4-bromo-3-(1-propenyl)-5-ethylthiophen-2-ylmethyl)-N′-(1H-quinolin-4-one)propane-1,3-diamine]	0.06 (≈ 0.13 µM)	0.06 to 0.5 (≈ 0.13 to 1.09 µM)	0.25 (≈ 0.543 µM)	8 (≈ 17.4 µM)	–	–	–	–	0.13 to 8 (≈ 0.282 to 17.4 µM)
Cc1c(CNCCCNc2nc3nnccc3[nH]2)sc(C2CC2)c1Br [Example 11, N-(4-Bromo-5-cyclopropyl-3-methylthiophen-2-ylmethyl)-N′-(5H-imidazo[4,5-c]pyridazin-6-yl)propane-1,3-diamine dihydrochloride]	2	1 to 2	8	2	–	–	–	–	0.13 to 8
Cc1c(CNCCCNc2nc3nnccc3[nH]2)sc(C(F)(F)F)c1Br [Example 12, N-(4-bromo-3-methyl-5-trifluoromethylthiophen-2-ylmethyl)-N′-(5H-imidazo[4,5-c]pyridazin-6-yl)propane-1,3-diamine dihydrochloride]	0.5	0.06 to 0.5	2	0.25	–	–	–	–	0.13 to 8
C=Cc1sc(CNCCCNc2nc3nnccc3[nH]2)c(C)c1Br [Example 13, N-(4-bromo-3-methyl-5-vinylthiophen-2-ylmethyl)-N′-(5H-imidazo[4,5-c]pyridazin-6-yl)propane-1,3-diamine dihydrochloride]	0.5	0.06 to 0.5	2	2	–	–	–	–	0.13 to 8
C=C(F)c1sc(CNCCCNc2nc3nnccc3[nH]2)c(C)c1Br [Example 14, N-(4-bromo-5-(1-fluorovinyl)-3-methylthiophen-2-ylmethyl)-N′-(5H-imidazo[4,5-c]pyridazin-6-yl)propane-1,3-diamine dihydrochloride]	0.25	0.06 to 0.5	0.25	0.13	–	–	–	–	0.13 to 8
C#Cc1sc(CNCCCNc2nc3nnccc3[nH]2)c(C)c1Br [Example 15, N-(4-bromo-5-ethynyl-3-methylthiophen-2-ylmethyl)-N′-(5H-imidazo[4,5-c]pyridazin-6-yl)propane-1,3-diamine dihydrochloride]	1	1 to 2	0.5	0.5	–	–	–	–	0.13 to 8
Cc1c(CNCCCNc2nc3ncccc3[nH]2)sc(C(F)F)c1Br [Example 16, N-(4-bromo-5-difluoromethyl-3-methylthiophen-2-ylmethyl)-N′-(1H-imidazo[4,5-b]pyridin-2-yl)-propane-1,3-diamine]	0.5 (≈ 1.16 µM)	0.06 to 0.5 (≈ 0.139 to 1.16 µM)	4 (≈ 9.3 µM)	64 (≈ 149 µM)	–	–	–	–	–
Cc1c(CNCCCNc2nc3cscc3[nH]2)sc(C(F)F)c1Br [Example 19, N-(4-Bromo-5-difluoromethyl-3-methylthiophen-2-ylmethyl)-N′-(1H-thieno[3,4-d]imidazol-2-yl)propane-1,3-diamine]	0.13 (≈ 0.299 µM)	0.06 to 0.5 (≈ 0.138 to 1.15 µM)	0.5 (≈ 1.15 µM)	16 (≈ 36.8 µM)	–	–	–	–	–
Cc1c(CNCCCNc2nc3cscc3[nH]2)sc(C(F)(F)F)c1Br [Example 20, N-(4-Bromo-3-methyl-5-trifluoromethylthiophen-2-ylmethyl)-N′-(1H-thieno[3,4-d]imidazol-2-yl)propane-1,3-diamine]	0.25 (≈ 0.551 µM)	0.06 to 0.5 (≈ 0.132 to 1.1 µM)	0.5 (≈ 1.1 µM)	16 (≈ 35.3 µM)	–	–	–	–	–
C=C(F)c1sc(CNCCCNc2nc3ccccc3[nH]2)c(C)c1Br [Example 22, N-(4-bromo-5-(1-fluorovinyl)-3-methylthiophen-2-ylmethyl)-N′-(1H-benzimidazole)propane-1,3-diamine]	0.13 (≈ 0.307 µM)	0.06 to 0.5 (≈ 0.142 to 1.18 µM)	0.5 (≈ 1.18 µM)	16 (≈ 37.8 µM)	≥ 6.70	–	–	–	–
Cc1c(CNCCCNc2nc(=O)c3sccc3[nH]2)sc(Br)c1Br [Example 25, N-(4,5-Dibromo-3-methylthiophen-2-ylmethyl)-N′-(1H-thieno [3,2-d]pyrimidin-4-one)propane-1,3-diamine]	0.5 (≈ 1.02 µM)	0.06 to 0.5 (≈ 0.122 to 1.02 µM)	2 (≈ 4.06 µM)	32 (≈ 65 µM)	≥ 6.70	–	–	–	–
O=c1cc(NCCCNCc2cc(Br)c(Br)s2)[nH]c2ccccc12 [Example 37]	–	–	–	–	–	8 (≈ 17 µM)	1 (≈ 2.12 µM)	> 64	–
O=c1cc(NCCCNCc2sc(Br)c(Br)c2Br)[nH]c2ccccc12 [Example 65]	–	–	–	–	–	2 (≈ 3.64 µM)	1 (≈ 1.82 µM)	> 64	–
O=c1cc(NC[C@H]2CCC[C@@H]2NCc2cc(Br)c(Br)s2)[nH]c2ccccc12 [Example 74]	–	–	–	–	–	2 (≈ 3.91 µM)	2 (≈ 3.91 µM)	> 64	–

More lines, main results first:

MIC [1] [µg/mL]	MIC [2] [µg/mL]	MIC [3] [µg/mL]	MIC [4] [µg/mL]	pIC50 [6]	MIC [1, 7] [µg/mL]	MIC [3, 7] [µg/mL]	MIC [4, 7] [µg/mL]	Structure (SMILES)	MIC [5] [µg/mL]
0.25 (≈ 0.515 µM)	0.06 to 0.5 (≈ 0.124 to 1.03 µM)	0.06 (≈ 0.124 µM)	32 (≈ 65.9 µM)	–	–	–	–	Cc1c(CNCCCNc2cc(=O)c3ccccc3[nH]2)sc(Br)c1Br [Example 1, N-(4,5-Dibromo-3-methylthiophen-2-ylmethyl)-N′-(1H-quinolin-4-one)propane-1,3-diamine]	–
0.13 (≈ 0.302 µM)	0.06 to 0.5 (≈ 0.139 to 1.16 µM)	0.06 (≈ 0.139 µM)	> 64	–	–	–	–	C#Cc1sc(CNCCCNc2cc(=O)c3ccccc3[nH]2)c(C)c1Br [Example 2, N-(4-bromo-5-ethynyl-3-methylthiophen-2-ylmethyl)-N′-(1H-quinolin-4-one)propane-1,3-diamine]	–
0.06 (≈ 0.138 µM)	0.06 to 0.5 (≈ 0.138 to 1.15 µM)	0.25 (≈ 0.576 µM)	64 (≈ 147 µM)	–	–	–	–	CCc1sc(CNCCCNc2cc(=O)c3ccccc3[nH]2)c(C)c1Br [Example 5, N-(4-bromo-5-ethyl-3-methylthiophen-2-ylmethyl)-N′-(1H-quinolin-4-one)propane-1,3-diamine]	–
1 (≈ 2.19 µM)	1 to 2 (≈ 2.19 to 4.38 µM)	1 (≈ 2.19 µM)	64 (≈ 140 µM)	–	–	–	–	Cc1c(CNCCCNc2cc(=O)c3ccccc3[nH]2)sc(C(F)F)c1Br [Example 7, N-(4-bromo-5-difluoromethyl-3-methylthiophen-2-ylmethyl)-N′-(1H-quinolin-4-one)propane-1,3-diamine]	–
0.13 (≈ 0.274 µM)	0.06 to 0.5 (≈ 0.126 to 1.05 µM)	0.13 (≈ 0.274 µM)	64 (≈ 135 µM)	–	–	–	–	Cc1c(CNCCCNc2cc(=O)c3ccccc3[nH]2)sc(C(F)(F)F)c1Br [Example 8, N-(4-bromo-3-methyl-5-trifluoromethylthiophen-2-ylmethyl)-N′-(1H-quinolin-4-one)propane-1,3-diamine]	–
0.06 (≈ 0.131 µM)	0.06 to 0.5 (≈ 0.131 to 1.09 µM)	0.06 (≈ 0.131 µM)	64 (≈ 140 µM)	–	–	–	–	CC#Cc1c(CNCCCNc2cc(=O)c3ccccc3[nH]2)sc(CC)c1Br [Example 9, N-(4-bromo-3-(1-propynyl)-5-ethylthiophen-2-ylmethyl)-N′-(1H-quinolin-4-one)propane-1,3-diamine]	–
0.06 (≈ 0.141 µM)	0.06 to 0.5 (≈ 0.141 to 1.18 µM)	0.25 (≈ 0.589 µM)	64 (≈ 151 µM)	≥ 6.70	–	–	–	C=C(F)c1sc(CNCCCNc2nc3ncccc3[nH]2)c(C)c1Br [Example 17, N-(4-bromo-5-(1-fluorovinyl)-3-methylthiophen-2-ylmethyl)-N′-(1H-imidazo[4,5-b]pyridin-2-yl)-propane-1,3-diamine]	–
1 (≈ 2.33 µM)	1 to 2 (≈ 2.33 to 4.66 µM)	4 (≈ 9.32 µM)	8 (≈ 18.6 µM)	–	–	–	–	Cc1c(CNCCCNc2nc3ccccc3[nH]2)sc(C(F)F)c1Br [Example 23, N-(4-bromo-5-difluoromethyl-3-methylthiophen-2-ylmethyl)-N′-(1H-benzimidazole)propane-1,3-diamine]	0.13 to 8 (≈ 0.303 to 18.6 µM)
0.5 (≈ 1.12 µM)	0.06 to 0.5 (≈ 0.134 to 1.12 µM)	1 (≈ 2.24 µM)	8 (≈ 17.9 µM)	–	–	–	–	Cc1c(CNCCCNc2nc3ccccc3[nH]2)sc(C(F)(F)F)c1Br [Example 24, N-(4-bromo-3-methyl-5-trifluoromethylthiophen-2-ylmethyl)-N′-(1H-benzimidazole)propane-1,3-diamine]	0.13 to 8 (≈ 0.291 to 17.9 µM)
